Experimental data as given in paper PMC5321434, “Dihydrobenz[e][1,4]oxazepin-2(3H)-ones, a new anthelmintic chemotype immobilising whipworm and reducing infectivity in vivo” (PLoS Neglected Tropical Diseases, 2017).
Read-outs that look alike come from different tables or passages of the source.

Key:
[1] = test system: CMT-93 murine rectal epithelial cells; test: WST-8 cytotoxicity assay; type: cell-based, mouse; settings: CMT-93 cells, 72 hours, maximum tested concentration 100μM, n = 8, 95% confidence interval in parentheses
Procedure: (§1) CMT-93 murine rectal epithelial cells were maintained in Dulbecco's Modified Eagle's Medium (DMEM) with 10% fetal calf serum (FCS) and 1% penicillin-streptomycin solution (10,000U/ml). Cells were plated in 96-well tissue culture plates at a density of 2x10^2 cells per well in a volume of 100μl, and cultured for 96 hours (37°C, 5% CO2) until reaching 30% confluence. The growth medium was removed and replaced with treatment media (DMEM, 1% FCS, 1% penicillin-streptomycin solution, 100μl assay volume) supplemented with vehicle alone (DMSO), test compounds or chlorpromazine, a positive control for cytotoxicity (final concentrations from 0 to 100μM). Maximum vehicle concentration for all compounds was 0.5% DMSO. Cells were cultured with the test compounds for 72 hours before cytotoxicity measurement. The WST-8 assay was performed using the Cell Counting Kit– 8 (Sigma Aldrich # 96992). 10μl of the CCK-8 solution was added to each well, plates were incubated for a further 2 hours, before absorbance was measured at 450nm using a microplate reader. This assay measures the ability of metabolically active cells to reduce a water-soluble formazan dye. Results were analysed using GraphPad Prism and fitted using a log-logistic model.

[2] = test system: CMT-93 murine rectal epithelial cells; test: Neutral red cytotoxicity assay; type: cell-based, mouse; settings: CMT-93 cells, 72 hours, maximum tested concentration 100μM, n = 8, 95% confidence interval in parentheses
Procedure: (§2) CMT-93 murine rectal epithelial cells were maintained in Dulbecco's Modified Eagle's Medium (DMEM) with 10% fetal calf serum (FCS) and 1% penicillin-streptomycin solution (10,000U/ml). Cells were plated in 96-well tissue culture plates at a density of 2x10^2 cells per well in a volume of 100μl, and cultured for 96 hours (37°C, 5% CO2) until reaching 30% confluence. The growth medium was removed and replaced with treatment media (DMEM, 1% FCS, 1% penicillin-streptomycin solution, 100μl assay volume) supplemented with vehicle alone (DMSO), test compounds or chlorpromazine, a positive control for cytotoxicity (final concentrations from 0 to 100μM). Maximum vehicle concentration for all compounds was 0.5% DMSO. Cells were cultured with the test compounds for 72 hours before cytotoxicity measurement. Following the WST-8 assay, the medium was removed, cells were washed with 100μl PBS and then 100μl of neutral red medium (DMEM, 1% FBS and 33μg/ml neutral red dye (Sigma Aldrich #N2889) were added to each well, followed by incubation for a further 2 hours. The neutral red medium was removed, cells washed with 100μl of PBS and 100μl of destain solution (50% ethanol, 49% distilled water and 1% glacial acetic acid) were added. Each assay plate was shaken rapidly for 10 minutes before absorbance was measured at 540nm using a microplate reader. This assay measures the ability of living cells to actively take up the neutral red dye. Results were analysed using GraphPad Prism and fitted using a log-logistic model.

adult T. muris = test: Ex vivo adult T. muris automated motility assay (primary/secondary screen at 100 μM and dose-response); parameters: species or system Trichuris muris; settings: for COMBINED_SCREEN_ACTIVITY: combined primary and secondary screen minus log fold change in movement, adult T. muris; for COMBINED_SCREEN_ACTIVITY / PRIMARY_SCREEN_MINUS_LOG_FOLD_CHANGE_MOVEMENT / SECONDARY_SCREEN_MINUS_LOG_FOLD_CHANGE_MOVEMENT: 100 μM; for PRIMARY_SCREEN_MINUS_LOG_FOLD_CHANGE_MOVEMENT: primary screen; for PRIMARY_SCREEN_MINUS_LOG_FOLD_CHANGE_MOVEMENT / SECONDARY_SCREEN_MINUS_LOG_FOLD_CHANGE_MOVEMENT: adult T. muris motility; for SECONDARY_SCREEN_MINUS_LOG_FOLD_CHANGE_MOVEMENT: secondary screen
Summary of the method: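 Motility scored after 24 h (37 °C, 5% CO2) by automated imaging of pixel intensity variance, one worm per well, four weekly biological replicates. Worms came from SCID mice infected orally with 200 eggs, harvested day 35; screening at 100 μM final in RPMI-1640/antibiotics, 1% DMSO; curves fitted with four-parameter log-logistic model.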

WST-8 cytotoxicity assay = type: cell-based, mouse; settings: mouse, CMT-93 rectal epithelial cells; resynthesised compound, WST-8 cytotoxicity; read-out: ResynCytotoxityWST-8(EC50uM)
Procedure: as §1

[3] = Neutral red cytotoxicity assay; type: cell-based, mouse; settings: mouse, CMT-93 rectal epithelial cells; resynthesised compound, neutral red cytotoxicity; read-out: ResynCytotoxicityNeutralRed(EC50uM)
Procedure: as §2

T. trichiura = settings: cited from earlier work
Ascaris = test system: Ascaris; parameters: method as in PMID 18430913; settings: annual treatment; cited from earlier work
T. muris [4] = settings: associated with cuticular damage; cited from earlier work
T. muris [5] = settings: associated with damage to nematode cuticle; cited from earlier work
[6] = test system: embryonated T. muris eggs; test: In vivo establishment of infection by compound-treated embryonated eggs; parameters: species or system Trichuris muris; settings: eggs soaked 14 days at 100μM; for Reduction of infectivity in vivo of treated embryonated eggs: washed, 30 eggs by oral gavage to mice, worms counted day 15, versus DMSO control
Procedure: 100 infective embryonated eggs were incubated with water, water plus DMSO vehicle, or test compounds at a final concentration of 100μM for 14 days at room temperature. Eggs were then washed, re-suspended in water and 30 eggs given to a mouse via oral gavage. At day 15 post-infection, mice were culled and the number of worms present in the caecae and colon was counted. One data point was excluded: a water control individual mouse where there were technical difficulties with the oral gavage leading to the mouse regurgitating some of the T. muris eggs. It was ear marked at day of gavage and removed from the analysis.
We collected data using the same experimental design on different occasions, these are referred to as batches. Data were obtained from three batches (DMSO and water controls, batches [A,B,C]) or two batches (OX02983 [A,C], OX03153 [B,C]) with the total number of mice used, n, as follows: DMSO: 14, water: 16, OX02983: 10, OX03153: 12. The data were analysed by 2-way ANOVA (worms ~ treatment + batch + treatment * batch). There was no significant interaction effect (P = 0.14) or effect of batch (P = 0.47). We therefore combined the data from the three batches. […] We then conducted a post-hoc test using Tukey’s honest significant difference test.

[7] = Trichuris muris, values of Fig 5 shown for comparison, read-out: EC50 in adult Trichuris paralysis assay
[8] = Trichuris muris, resynthesised compound, adult T. muris paralysis, read-out: ResynActivityTmurisAdultParalysis(EC50uM)

Q: Which results are given for `O=C1COCc2cc(-c3cccnc3)ccc2N1CC1CCCCC1` [OX02993, 1-(Cyclohexylmethyl)-7-(pyridin-3-yl)-1,5-dihydrobenzo[e][1,4]oxazepin-2(3H)-one]?
A: EC50 ([1]; Mus musculus, CMT93): > 100 µM; EC50 ([2]; Mus musculus, CMT93): > 100 µM; EC50 (adult T. muris; [7]): 52 µM

Q: For `O=C1COCc2cc(-c3cccnc3)ccc2N1CC1CCCCC1` [Compound 2], which EC50 at 72 h (WST-8 cytotoxicity assay) is on record?
A: > 100 µM

Q: And the EC50 at 72 h [3]?
A: > 100 µM

Q: And the EC50 (adult T. muris; [8])?
A: 52 µM

Q: What about the COMBINED_SCREEN_ACTIVITY (adult T. muris) of the same compound?
A: 11.5091

Q: And the PRIMARY_SCREEN_MINUS_LOG_FOLD_CHANGE_MOVEMENT (adult T. muris)?
A: 10.3993

Q: And the SECONDARY_SCREEN_MINUS_LOG_FOLD_CHANGE_MOVEMENT (adult T. muris)?
A: 12.6188

Q: With `CN(C)CCCN1c2ccccc2Sc2ccc(Cl)cc21` [Chlorpromazine, reference compound] as the compound, how does the EC50 ([1]; Mus musculus, CMT93) read?
A: 9 µM

Q: What about the EC50 ([2]; Mus musculus, CMT93) of the same compound?
A: 10 µM

Q: What does the source list for `c1ccc([C@H]2CN3CCSC3=N2)cc1` [Levamisole, reference compound]?
A: Single-dose cure rate, trichiuriasis (T. trichiura; single dose, no reference given): 9%; EC50 (adult T. muris; Trichuris muris, single adult worms, 24 hours incubation, automated motility assay, EC50 ± standard error, n = 5 (OX03144 n = 10), read-out: EC50, attenuation of ex vivo T. muris adult motility): 8 µM

Q: For `CCCSc1ccc2nc(NC(=O)OC)[nH]c2c1` [albendazole], which “Cure rate for infection with T. trichiura” value (T. trichiura; single doses of benzimidazoles) is on record?
A: 28%

Q: And the “Cure rate, Ascaris” value (Ascaris)?
A: up to 95%

Q: With `Cc1ccc(CN2C(=O)COCc3cc(Br)ccc32)cc1` [Compound 4] as the compound, how does the EC50 at 72 h (WST-8 cytotoxicity assay) read?
A: 63 µM

Q: And the EC50 at 72 h [3]?
A: 47 µM

Q: And the EC50 (adult T. muris; [8])?
A: 35 µM

Q: And the COMBINED_SCREEN_ACTIVITY (adult T. muris)?
A: 11.5841

Q: What about the PRIMARY_SCREEN_MINUS_LOG_FOLD_CHANGE_MOVEMENT (adult T. muris) of the same compound?
A: 10.5493

Q: And the SECONDARY_SCREEN_MINUS_LOG_FOLD_CHANGE_MOVEMENT (adult T. muris)?
A: 12.6188

Q: Which results are given for `O=C1COCc2cc(-c3cccnc3)ccc2N1Cc1ccc(C(F)(F)F)cc1` [OX03144, 7-(Pyridin-3-yl)-1-(4-(trifluoromethyl)benzyl)-1,5-dihydrobenzo[e][1,4]oxazepin-2(3H)-one]?
A: EC50 ([1]; Mus musculus, CMT93): > 100 µM; EC50 ([2]; Mus musculus, CMT93): 60 µM; EC50 (adult T. muris; [7]): 26 µM

Q: Which “Activity against T. muris” value (T. muris [4]) does the source give for `COc1c2ccoc2cc2oc(=O)ccc12` [bergapten] here?
A: activity against T. muris

Q: With `CN1CCCN=C1/C=C/c1cccc(O)c1.O=C(O)c1cc2ccccc2c(Cc2c(O)c(C(=O)O)cc3ccccc23)c1O` [oxantel pamoate] as the compound, how does the “Single-dose cure rate, T. trichiura” value (T. trichiura; children, optimal dose, dose-ranging study) read?
A: 60%

Q: Which “Effect on motility of T. muris parasites in vitro” value (T. muris [5]) does the source give for ficin here?
A: rapidly reduce motility

Q: Which results are given for `Cc1ccc(CN2C(=O)COCc3cc(-c4ccncc4)ccc32)cc1` [OX02983, 1-(4-Methylbenzyl)-7-(pyridin-4-yl)-1,5-dihydrobenzo[e][1,4]oxazepin-2(3H)-one]?
A: EC50 ([1]; Mus musculus, CMT93): > 100 µM; EC50 ([2]; Mus musculus, CMT93): > 100 µM; EC50 (adult T. muris; [7]): 50 µM; Median worms establishing infection ([6]; 30 eggs by oral gavage, day 15 post-infection): 5.5 worms; Reduction of infectivity in vivo of treated embryonated eggs [6]: ~54%

Q: Which “Activity against T. muris” value (T. muris [4]) does the source give for `O=c1cc(-c2ccc(O)c(O)c2)oc2cc(O)cc(O)c12` [luteolin] here?
A: activity against T. muris

Q: Which EC50 [1] does the source give for “1-(4-Methylbenzyl)-7-(pyridin-4-yl)-1,5-dihydrobenzo[e][1,4]oxazepin-2(3H)-one [OX03153]” here?
A: > 100 µM

Q: What about the EC50 [2] of the same compound?
A: > 100 µM

Q: What about the EC50 (adult T. muris; values of Fig 5 shown for comparison, read-out: EC50 in adult Trichuris paralysis assay) of the same compound?
A: 57 µM

Q: What about the “Reduction of infectivity in vivo of treated embryonated eggs” value [6] of the same compound?
A: not active
